From ChEMBL document CHEMBL4184237, “Cytotoxic oligophenols from the rhizome of Wikstroemia indica” (Bioorg Med Chem Lett, 2018)

Tests used:
SW480 [1] = experiment: Induction of apoptosis in human SW480 cells assessed as Bcl-xL protein level incubated for 48 hrs by Western blot analysis relative to untreated control; assay type: functional
SW480 [2] = experiment: Induction of apoptosis in human SW480 cells assessed as necrotic cells level incubated for 48 hrs by Annexin V-FITC and PI double staining based flow cytometry (reference value: 1.17%); assay type: functional
HCT-116 = experiment: Cytotoxicity against human HCT116 cells assessed as reduction in cell viability incubated for 24 hrs by CCK8 assay; assay type: functional, cell-based; details: HCT-116, 24 h
SW480 [3] = experiment: Effect on GAPDH protein expression human SW480 cells assessed as GAPDH protein level incubated for 48 hrs by Western blot analysis relative to untreated control; assay type: ADME, cell-based; details: sw480, 48 h
T98G [4] = experiment: Induction of apoptosis in human T98G cells assessed as Bax protein level incubated for 48 hrs by Western blot analysis relative to untreated control; assay type: functional
SW480 [5] = experiment: Induction of apoptosis in human SW480 cells assessed as Bax protein level incubated for 48 hrs by Western blot analysis relative to untreated control; assay type: functional
SW480 [6] = experiment: Cytotoxicity against human SW480 cells assessed as reduction in cell viability incubated for 24 hrs by CCK8 assay; assay type: functional, cell-based; details: SW480, 24 h
T98G [7] = experiment: Effect on GAPDH protein expression human T98G cells assessed as GAPDH protein level incubated for 48 hrs by Western blot analysis relative to untreated control; assay type: ADME, cell-based
T98G [8] = experiment: Induction of apoptosis in human T98G cells assessed as necrotic cells level incubated for 48 hrs by Annexin V-FITC and PI double staining based flow cytometry (reference value: 1.66%); assay type: functional
T98G [9] = experiment: Induction of apoptosis in human T98G cells assessed as early apoptotic cells level incubated for 48 hrs by Annexin V-FITC and PI double staining based flow cytometry (reference value: 1.79%); assay type: functional
T98G [10] = experiment: Induction of apoptosis in human T98G cells assessed as viable cells level incubated for 48 hrs by Annexin V-FITC and PI double staining based flow cytometry (reference value: 91.3%); assay type: functional
T98G [11] = experiment: Induction of apoptosis in human T98G cells assessed as late apoptotic cells level incubated for 48 hrs by Annexin V-FITC and PI double staining based flow cytometry (reference value: 5.35%); assay type: functional
SW480 [12] = experiment: Induction of apoptosis in human SW480 cells assessed as late apoptotic cells level incubated for 48 hrs by Annexin V-FITC and PI double staining based flow cytometry (reference value: 2.09%); assay type: functional
T98G [13] = experiment: Induction of apoptosis in human T98G cells assessed as Bcl-xL protein level incubated for 48 hrs by Western blot analysis relative to untreated control; assay type: functional
SW480 [14] = experiment: Induction of apoptosis in human SW480 cells assessed as viable cells level incubated for 48 hrs by Annexin V-FITC and PI double staining based flow cytometry (reference value: 93.2%); assay type: functional
SW480 [15] = experiment: Induction of apoptosis in human SW480 cells assessed as early apoptotic cells level incubated for 48 hrs by Annexin V-FITC and PI double staining based flow cytometry (reference value: 2.75%); assay type: functional
T98G [16] = experiment: Cytotoxicity against human T98G cells assessed as reduction in cell viability incubated for 24 hrs by CCK8 assay; assay type: functional, cell-based
U-87 MG = experiment: Cytotoxicity against human U87 cells assessed as reduction in cell viability incubated for 24 hrs by CCK8 assay; assay type: functional, cell-based, U-87MG ATCC

| Structure (SMILES) | fold change (FC) (SW480 [1]) | Activity (SW480 [2]) | IC50 (HCT-116) | fold change (FC) (SW480 [3]) | fold change (FC) (T98G [4]) | fold change (FC) (SW480 [5]) | IC50 (SW480 [6]) | fold change (FC) (T98G [7]) | Activity (T98G [8]) | Activity (T98G [9]) | Activity (T98G [10]) | Activity (T98G [11]) | Activity (SW480 [12]) | fold change (FC) (T98G [13]) | Activity (SW480 [14]) | Activity (SW480 [15]) | IC50 (T98G [16]) | IC50 (U-87 MG) |
| --- | --- | --- | --- | --- | --- | --- | --- | --- | --- | --- | --- | --- | --- | --- | --- | --- | --- | --- |
| O=c1c(-c2c(O)cc3c(c2O)C[C@@H](O)[C@H](c2ccc(O)cc2)O3)c(-c2ccc(O)cc2)oc2cc(O)cc(O)c12 | 0.8 | 1.31% | 24.4 µM | 0.9 | 3.4 | 2.3 | 17.9 µM | 1 | 1.36% | 10.3% | 62.9% | 25.4% | 12.9% | 0.7 | 51.6% | 34.2% | 30.6 µM | 35.7 µM |
| O=c1ccc2ccc(Oc3cc4ccc(O[C@@H]5O[C@H](CO)[C@@H](O)[C@H](O)[C@H]5O)c(-c5c(O)ccc6ccc(=O)oc56)c4oc3=O)cc2o1 | – | – | > 100 µM | – | – | – | > 100 µM | – | – | – | – | – | – | – | – | – | > 100 µM | > 100 µM |
| CC(=O)O[C@H]1C(=O)[C@@]2(C)[C@H]([C@H](OC(=O)c3ccccc3)[C@]3(O)C[C@H](OC(=O)[C@H](O)[C@@H](NC(=O)c4ccccc4)c4ccccc4)C(C)=C1C3(C)C)[C@]1(OC(C)=O)CO[C@@H]1C[C@@H]2O [PACLITAXEL] | – | 1.13% | – | – | – | – | 0.19 µM | – | 3.23% | 15% | 25.6% | 56.2% | 14.7% | – | 33.6% | 45.6% | 0.74 µM | 4.67 µM |
| O=c1c(-c2c(O)cc3c(c2O)C[C@@H](O)[C@@H](c2ccc(O)c(O)c2)O3)c(-c2ccc(O)cc2)oc2cc(O)cc(O)c12 | 0.7 | 0.909% | 28.7 µM | 1 | 3.8 | 2.4 | 30.4 µM | 0.9 | 1.15% | 17.8% | 63.9% | 17.2% | 9.3% | 0.7 | 68.1% | 21.7% | 27.3 µM | 32.5 µM |
| O=c1c(-c2c(O)cc3c(c2O)C[C@H](O)[C@H](c2ccc(O)c(O)c2)O3)c(-c2ccc(O)cc2)oc2cc(O)cc(O)c12 | 0.6 | 2.87% | 87.6 µM | 1 | 4.1 | 1.9 | 71 µM | 1 | 1.55% | 4.11% | 79.4% | 15% | 13.7% | 0.4 | 64.8% | 18.5% | 83.5 µM | 88.4 µM |
